From patent US20230157952A1, “METHOD FOR IMPROVING THE STABILITY OF A PHARMACEUTICAL COMPOSITION COMPRISING A HIGH PENETRATION DRUG, AND THE PHARMACEUTICAL COMPOSITION OBTAINED THEREFROM” (Techfields Inc., priority 2020, published 2023)

Tests used:
[1] = Effect of temperature (and pH) on the stability of the solution (purity); assay type: physicochemical; settings: 7% solution in water
[2] = Effect of concentration on the stability of the solution (purity over time)
[3] = 0.01 wt %, at 5° C. in 15% acetone
[4] = 0.1 wt %, at 5° C. in 15% acetone
[5] = 1 wt %, at 5° C. in 15% acetone
[6] = 3 wt %, at 5° C. in 15% acetone
[7] = 5 wt %, at 5° C. in 15% acetone
[8] = 7 wt %, at 5° C. in 15% acetone
[9] = 8 wt %, at 5° C. in 15% acetone
[10] = 10 wt %, at 5° C. in 15% acetone
[11] = 15 wt %, at 5° C. in 15% acetone
[12] = 20 wt %, at 5° C. in 15% acetone
[13] = 30 wt %, at 5° C. in 15% acetone
[14] = 50 wt %, at 5° C. in 15% acetone

CCN(CC)CCOC(=O)Cc1sc(-c2ccccc2)nc1-c1ccc(Cl)cc1.Cl [2-(diethylamino)ethyl 4-(4-chlorophenyl)-2-phenyl-5-thiazoleacetate•HCl]
Stability of the solution at a temperature higher than 40° C. and a pH lower than 3 or greater than 6 [1]: not stable | Purity at Day 3 ([2]; 0.01 wt %, in water at 25° C.): 83.4% | Purity at Day 7 ([2]; 0.01 wt %, in water at 25° C.): 74.2% | Purity at Day 14 ([2]; 0.01 wt %, in water at 25° C.): 58.4% | Purity at Day 21 ([2]; 0.01 wt %, in water at 25° C.): 46.5% | Purity at Day 28 ([2]; 0.01 wt %, in water at 25° C.): 37.5% | Purity at hr 0 ([2]; 0.01 wt %, in water at 25° C.): 98.4% | Purity at Day 3 ([2]; 0.1 wt %, in water at 25° C.): 96.7% | Purity at Day 7 ([2]; 0.1 wt %, in water at 25° C.): 95.6% | Purity at Day 14 ([2]; 0.1 wt %, in water at 25° C.): 91.5% | Purity at Day 21 ([2]; 0.1 wt %, in water at 25° C.): 84.7% | Purity at Day 28 ([2]; 0.1 wt %, in water at 25° C.): 80.5% | Purity at hr 0 ([2]; 0.1 wt %, in water at 25° C.): 98.5% | Purity at Day 3 ([2]; 1 wt %, in water at 25° C.): 96.6% | Purity at Day 7 ([2]; 1 wt %, in water at 25° C.): 95.5% | Purity at Day 14 ([2]; 1 wt %, in water at 25° C.): 92.9% | Purity at Day 21 ([2]; 1 wt %, in water at 25° C.): 90.9% | Purity at Day 28 ([2]; 1 wt %, in water at 25° C.): 89.1% | Purity at hr 0 ([2]; 1 wt %, in water at 25° C.): 98.7% | Purity at Day 3 ([2]; 3 wt %, in water at 25° C.): 96.5% | Purity at Day 7 ([2]; 3 wt %, in water at 25° C.): 96.2% | Purity at Day 14 ([2]; 3 wt %, in water at 25° C.): 94.8% | Purity at Day 21 ([2]; 3 wt %, in water at 25° C.): 94.0% | Purity at Day 28 ([2]; 3 wt %, in water at 25° C.): 92.7% | Purity at hr 0 ([2]; 3 wt %, in water at 25° C.): 98.9% | Purity at Day 3 ([2]; 5 wt %, in water at 25° C.): 98.4% | Purity at Day 7 ([2]; 5 wt %, in water at 25° C.): 98.0% | Purity at Day 14 ([2]; 5 wt %, in water at 25° C.): 97.8% | Purity at Day 21 ([2]; 5 wt %, in water at 25° C.): 96.6% | Purity at Day 28 ([2]; 5 wt %, in water at 25° C.): 95.4% | Purity at hr 0 ([2]; 5 wt %, in water at 25° C.): 98.9% | Purity at Day 3 ([2]; 7 wt %, in water at 25° C.): 98.6% | Purity at Day 7 ([2]; 7 wt %, in water at 25° C.): 98.2% | Purity at Day 14 ([2]; 7 wt %, in water at 25° C.): 98.2% | Purity at Day 21 ([2]; 7 wt %, in water at 25° C.): 97.7% | Purity at Day 28 ([2]; 7 wt %, in water at 25° C.): 97.5% | Purity at hr 0 ([2]; 7 wt %, in water at 25° C.): 99.1% | Purity at Day 3 ([2]; 8 wt %, in water at 25° C.): 98.7% | Purity at Day 7 ([2]; 8 wt %, in water at 25° C.): 98.3% | Purity at Day 14 ([2]; 8 wt %, in water at 25° C.): 97.9% | Purity at Day 21 ([2]; 8 wt %, in water at 25° C.): 97.9% | Purity at Day 28 ([2]; 8 wt %, in water at 25° C.): 97.6% | Purity at hr 0 ([2]; 8 wt %, in water at 25° C.): 99.1% | Purity at Day 3 ([2]; 10 wt %, in water at 25° C.): 98.8% | Purity at Day 7 ([2]; 10 wt %, in water at 25° C.): 98.5% | Purity at Day 14 ([2]; 10 wt %, in water at 25° C.): 98.3% | Purity at Day 21 ([2]; 10 wt %, in water at 25° C.): 98.1% | Purity at Day 28 ([2]; 10 wt %, in water at 25° C.): 97.5% | Purity at hr 0 ([2]; 10 wt %, in water at 25° C.): 99.2% | Purity at Day 3 ([2]; 15 wt %, in water at 25° C.): 98.7% | Purity at Day 7 ([2]; 15 wt %, in water at 25° C.): 98.6% | Purity at Day 14 ([2]; 15 wt %, in water at 25° C.): 98.4% | Purity at Day 21 ([2]; 15 wt %, in water at 25° C.): 98.1% | Purity at Day 28 ([2]; 15 wt %, in water at 25° C.): 97.8% | Purity at hr 0 ([2]; 15 wt %, in water at 25° C.): 99.1% | Purity at Day 3 ([2]; 20 wt %, in water at 25° C.): 98.8% | Purity at Day 7 ([2]; 20 wt %, in water at 25° C.): 98.5% | Purity at Day 14 ([2]; 20 wt %, in water at 25° C.): 98.2% | Purity at Day 21 ([2]; 20 wt %, in water at 25° C.): 98.1% | Purity at Day 28 ([2]; 20 wt %, in water at 25° C.): 97.7% | Purity at hr 0 ([2]; 20 wt %, in water at 25° C.): 99.0% | Purity at Day 3 ([2]; 30 wt %, in water at 25° C.): 98.7% | Purity at Day 7 ([2]; 30 wt %, in water at 25° C.): 98.5% | Purity at Day 14 ([2]; 30 wt %, in water at 25° C.): 98.3% | Purity at Day 21 ([2]; 30 wt %, in water at 25° C.): 98.0% | Purity at Day 28 ([2]; 30 wt %, in water at 25° C.): 97.8% | Purity at hr 0 ([2]; 30 wt %, in water at 25° C.): 99.1% | Purity at Day 3 ([2]; 50 wt %, in water at 25° C.): 98.8% | Purity at Day 7 ([2]; 50 wt %, in water at 25° C.): 98.5% | Purity at Day 14 ([2]; 50 wt %, in water at 25° C.): 98.2% | Purity at Day 21 ([2]; 50 wt %, in water at 25° C.): 98.9% | Purity at Day 28 ([2]; 50 wt %, in water at 25° C.): 97.8% | Purity at hr 0 ([2]; 50 wt %, in water at 25° C.): 99.1% | Stability when the concentration is 0.1% or lower ([2]; in water at 25° C.): not stable

CCN(CC)CCOC(=O)c1cc(-c2ccc(F)cc2F)ccc1OC(C)=O.Cl [2-(diethylamino)ethyl 5-(2,4-difluorophenyl)-2-acetoxybenzoate•HCl]
Stability of the solution at a temperature higher than 40° C. and a pH lower than 3 or greater than 6 [1]: not stable | Purity at day 0 [2, 3]: 98.2% | Purity at day 3 [2, 3]: 93.9% | Purity at day 7 [2, 3]: 88.1% | Purity at day 15 [2, 3]: 80.3% | Purity at day 22 [2, 3]: 73.7% | Purity at day 28 [2, 3]: 67.9% | Purity at day 60 [2, 3]: 48.1% | Purity at day 90 [2, 3]: 30.0% | Purity at day 0 [2, 4]: 98.3% | Purity at day 3 [2, 4]: 95.1% | Purity at day 7 [2, 4]: 93.1% | Purity at day 15 [2, 4]: 89.0% | Purity at day 22 [2, 4]: 85.3% | Purity at day 28 [2, 4]: 82.3% | Purity at day 60 [2, 4]: 70.5% | Purity at day 90 [2, 4]: 61.2% | Purity at day 0 [2, 5]: 98.4% | Purity at day 3 [2, 5]: 97.0% | Purity at day 7 [2, 5]: 95.9% | Purity at day 15 [2, 5]: 94.0% | Purity at day 22 [2, 5]: 92.2% | Purity at day 28 [2, 5]: 89.7% | Purity at day 60 [2, 5]: 79.4% | Purity at day 90 [2, 5]: 71.9% | Purity at day 0 [2, 6]: 98.5% | Purity at day 3 [2, 6]: 97.7% | Purity at day 7 [2, 6]: 96.6% | Purity at day 15 [2, 6]: 94.9% | Purity at day 22 [2, 6]: 92.1% | Purity at day 28 [2, 6]: 91.2% | Purity at day 60 [2, 6]: 84.4% | Purity at day 90 [2, 6]: 79.2% | Purity at day 0 [2, 7]: 98.6% | Purity at day 3 [2, 7]: 98.2% | Purity at day 7 [2, 7]: 97.8% | Purity at day 15 [2, 7]: 97.3% | Purity at day 22 [2, 7]: 96.1% | Purity at day 28 [2, 7]: 95.5% | Purity at day 60 [2, 7]: 94.5% | Purity at day 90 [2, 7]: 93.9% | Purity at day 0 [2, 8]: 98.7% | Purity at day 3 [2, 8]: 98.4% | Purity at day 7 [2, 8]: 98.4% | Purity at day 15 [2, 8]: 98.0% | Purity at day 22 [2, 8]: 97.5% | Purity at day 28 [2, 8]: 97.2% | Purity at day 60 [2, 8]: 96.2% | Purity at day 90 [2, 8]: 95.8% | Purity at day 0 [2, 9]: 98.6% | Purity at day 3 [2, 9]: 98.5% | Purity at day 7 [2, 9]: 98.3% | Purity at day 15 [2, 9]: 98.1% | Purity at day 22 [2, 9]: 97.4% | Purity at day 28 [2, 9]: 97.1% | Purity at day 60 [2, 9]: 96.0% | Purity at day 90 [2, 9]: 95.9% | Purity at day 0 [2, 10]: 98.7% | Purity at day 3 [2, 10]: 98.5% | Purity at day 7 [2, 10]: 98.5% | Purity at day 15 [2, 10]: 98.2% | Purity at day 22 [2, 10]: 97.7% | Purity at day 28 [2, 10]: 97.3% | Purity at day 60 [2, 10]: 96.7% | Purity at day 90 [2, 10]: 96.1% | Purity at day 0 [2, 11]: 98.6% | Purity at day 3 [2, 11]: 98.4% | Purity at day 7 [2, 11]: 98.4% | Purity at day 15 [2, 11]: 98.3% | Purity at day 22 [2, 11]: 97.5% | Purity at day 28 [2, 11]: 97.2% | Purity at day 60 [2, 11]: 96.5% | Purity at day 90 [2, 11]: 96.2% | Purity at day 0 [2, 12]: 98.7% | Purity at day 3 [2, 12]: 98.5% | Purity at day 7 [2, 12]: 98.5% | Purity at day 15 [2, 12]: 98.3% | Purity at day 22 [2, 12]: 98.0% | Purity at day 28 [2, 12]: 97.1% | Purity at day 60 [2, 12]: 96.6% | Purity at day 90 [2, 12]: 96.0% | Purity at day 0 [2, 13]: 98.5% | Purity at day 3 [2, 13]: 98.5% | Purity at day 7 [2, 13]: 98.4% | Purity at day 15 [2, 13]: 98.1% | Purity at day 22 [2, 13]: 97.9% | Purity at day 28 [2, 13]: 97.3% | Purity at day 60 [2, 13]: 96.7% | Purity at day 90 [2, 13]: 96.2% | Purity at day 0 [2, 14]: 98.7% | Purity at day 3 [2, 14]: 98.7% | Purity at day 7 [2, 14]: 98.5% | Purity at day 15 [2, 14]: 98.3% | Purity at day 22 [2, 14]: 97.8% | Purity at day 28 [2, 14]: 97.2% | Purity at day 60 [2, 14]: 96.9% | Purity at day 90 [2, 14]: 96.3% | Stability when the concentration is 0.1% or lower ([2]; at 5° C. in 15% acetone): not stable
